Results published in paper PMC6150381, “Design, Synthesis, and Biological Evaluation of N,N-Disubstituted-4-arylthiazole-2-methylamine Derivatives as Cholesteryl Ester Transfer Inhibitors” (Molecules : A Journal of Synthetic Chemistry and Natural …, 2017).

What was measured:
[1] = molecular target: T1, recombinant CETP (Homo sapiens, UniProt P11597); assay: In vitro CETP inhibitory assay (BODIPY-CE fluorescence assay, CETP RP Activity Assay Kit); assay type: biochemical; settings: for IC50: CETP inhibition, eight-point titration, each concentration tested three times
T1 construct: purchased Roar, New York, NY, USA RB-RPAK
T1 sequence (P11597 18-493): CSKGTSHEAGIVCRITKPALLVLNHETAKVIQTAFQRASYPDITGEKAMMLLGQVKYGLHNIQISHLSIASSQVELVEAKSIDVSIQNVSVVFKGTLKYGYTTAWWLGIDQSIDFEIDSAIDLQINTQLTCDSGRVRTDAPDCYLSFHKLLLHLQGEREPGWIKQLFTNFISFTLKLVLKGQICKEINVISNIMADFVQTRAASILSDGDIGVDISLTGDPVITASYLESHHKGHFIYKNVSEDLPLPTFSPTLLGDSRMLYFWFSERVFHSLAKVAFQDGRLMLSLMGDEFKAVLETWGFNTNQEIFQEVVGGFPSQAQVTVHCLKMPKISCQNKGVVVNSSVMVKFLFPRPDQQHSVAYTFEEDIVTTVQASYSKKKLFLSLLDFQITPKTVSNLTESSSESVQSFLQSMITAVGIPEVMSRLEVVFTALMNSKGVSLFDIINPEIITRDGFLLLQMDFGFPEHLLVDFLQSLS
Protocol: The IC50 was determined from a curve fit of the data with each concentration tested three times.

Structure (SMILES) | IC50 [1] [µM] | melting point [°C] | decrease of activity on replacing the nitro group at the 4-position of ring B ([1]; compared with the 4-nitro compound (30)) [fold]
Cn1nccc1-c1cccc(N(Cc2ccc(F)cc2)Cc2nc(-c3ccc([N+](=O)[O-])cc3)cs2)c1 [Compound 29, N-(4-Fluorobenzyl)-3-(1-methyl-1H-pyrazol-5-yl)-N-((4-(4-nitrophenyl)thiazol-2-yl)methyl)aniline] | 24.56 ± 0.22 |  | 
Fc1ccc(CN(Cc2nc(-c3ccccc3)cs2)c2cccc(Oc3ccccc3)c2)cc1 [Compound 17d, N-(4-Fluorobenzyl)-3-phenoxy-N-((4-phenylthiazol-2-yl)methyl)aniline] | 9.03 ± 0.21 |  | 
Fc1ccc(CN(Cc2ncc(-c3ccccc3)o2)c2cccc(Oc3ccccc3)c2)cc1 [Compound 17a, N-(4-Fluorobenzyl)-3-phenoxy-N-((5-phenyloxazol-2-yl)methyl)aniline] | 25.7 ± 0.41 | 81 to 82.4 | 
O=[N+]([O-])c1ccc(-c2csc(CN(Cc3ccc(F)cc3)c3cccc(C(F)(F)F)c3)n2)cc1 [Compound 24, N-(4-Fluorobenzyl)-N-((4-(4-nitrophenyl)thiazol-2-yl)methyl)-3-(trifluoromethyl)aniline] | 13.8 ± 0.14 | 107 to 108.4 | 
Fc1ccc(CN(Cc2nc3ccccc3o2)c2cccc(Oc3ccccc3)c2)cc1 [Compound 17g, N-(Benzo[d]oxazol-2-ylmethyl)-N-(4-fluorobenzyl)-3-phenoxyaniline] | 15.2 ± 0.52 |  | 
Fc1ccc(CN(Cc2ncc(-c3ccccc3)s2)c2cccc(Oc3ccccc3)c2)cc1 [Compound 17b, N-(4-Fluorobenzyl)-3-phenoxy-N-((5-phenylthiazol-2-yl)methyl)aniline] | 10.6 ± 0.32 | 90.5 to 92.5 | 
COc1ccc(N(Cc2ccc(F)cc2)Cc2nc(-c3ccc(F)cc3)cs2)cc1OC [Compound 31, N-(4-Fluorobenzyl)-N-((4-(4-fluorophenyl)thiazol-2-yl)methyl)-3,4-dimethoxyaniline] | 2.46 ± 0.06 |  | 
Fc1ccc(CN(Cc2nc3ccccc3[nH]2)c2cccc(Oc3ccccc3)c2)cc1 [Compound 17f, N-((1H-Benzo[d]imidazol-2-yl)methyl)-N-(4-fluorobenzyl)-3-phenoxyaniline] | 13.7 ± 0.63 |  | 
O=[N+]([O-])c1ccc(-c2csc(CN(Cc3ccc(F)cc3)c3cccc(-c4cccs4)c3)n2)cc1 [Compound 28, N-(4-Fluorobenzyl)-N-((4-(4-nitrophenyl)thiazol-2-yl)methyl)-3-(thiophen-2-yl)aniline] | 7.77 ± 0.13 | 143.9 to 148.8 | 
O=[N+]([O-])c1ccc(-c2csc(CN(Cc3ccc(F)cc3)c3cccc(-c4ccccc4)c3)n2)cc1 [Compound 26, N-(4-Fluorobenzyl)-N-((4-(4-nitrophenyl)thiazol-2-yl)methyl)-[1,1′-biphenyl]-3-amine] | 8.98 ± 0.05 | 149.5 to 150.8 | 
O=[N+]([O-])c1ccc(-c2csc(CN(Cc3ccc(F)cc3)c3ccccc3-c3ccccc3)n2)cc1 [Compound 27, N-(4-Fluorobenzyl)-N-((4-(4-nitrophenyl)thiazol-2-yl)methyl)-[1,1′-biphenyl]-2-amine] | 1.02 ± 0.01 |  | 
Fc1ccc(CN(Cc2nnc(-c3ccccc3)o2)c2cccc(Oc3ccccc3)c2)cc1 [Compound 17e, N-(4-Fluorobenzyl)-3-phenoxy-N-((5-phenyl-1,3,4-oxadiazol-2-yl)methyl)aniline] | 26.9 ± 0.35 | 97.3 to 98.2 | 
O=[N+]([O-])c1ccc(-c2csc(CN(Cc3ccc(F)cc3)c3cccc(OC(F)(F)F)c3)n2)cc1 [Compound 23, N-(4-Fluorobenzyl)-N-((4-(4-nitrophenyl)thiazol-2-yl)methyl)-3-(trifluoromethoxy)aniline] | 31.69 ± 0.25 |  | 
COc1cccc(N(Cc2ccc(F)cc2)Cc2nc(-c3ccccc3)cs2)c1 [Compound 21, N-(4-Fluorobenzyl)-3-methoxy-N-((4-phenylthiazol-2-yl)methyl)aniline] | 13.96 ± 0.11 |  | 
Cc1cc(CN(Cc2ccc(F)cc2)c2cccc(Oc3ccccc3)c2)nn1-c1ccccc1 [Compound 17c, N-(4-Fluorobenzyl)-N-((5-methyl-1-phenyl-1H-pyrazol-3-yl)methyl)-3-phenoxyaniline] | 17.1 ± 0.44 |  | 
O=[N+]([O-])c1ccc(-c2csc(CN(Cc3ccc(F)cc3)c3ccc(-c4ccccc4)cc3)n2)cc1 [Compound 25, N-(4-Fluorobenzyl)-N-((4-(4-nitrophenyl)thiazol-2-yl)methyl)-[1,1′-biphenyl]-4-amine] | 9.55 ± 0.08 | 164.5 to 166.2 | 
COc1ccc(N(Cc2ccc(F)cc2)Cc2nc(-c3ccccc3)cs2)cc1OC [Compound 22, N-(4-Fluorobenzyl)-3,4-dimethoxy-N-((4-phenylthiazol-2-yl)methyl)aniline] | 3.58 ± 0.03 |  | 

The remaining lines, values ahead:

IC50 [1] [µM] | melting point [°C] | decrease of activity on replacing the nitro group at the 4-position of ring B ([1]; compared with the 4-nitro compound (30)) [fold] | Structure (SMILES)
3.51 ± 0.06 |  |  | COc1ccc(N(Cc2ccc(F)cc2)Cc2nc(-c3ccc4ccccc4c3)cs2)cc1OC [Compound 41, N-(4-Fluorobenzyl)-3,4-dimethoxy-N-((4-(naphthalen-2-yl)thiazol-2-yl)methyl)aniline]
3.54 ± 0.03 | 103.5 to 105.4 |  | COC(=O)CNc1ccc(-c2csc(CN(Cc3ccc(F)cc3)c3ccc(OC)c(OC)c3)n2)cc1 [Compound 47, Methyl(4-(2-(((3,4-dimethoxyphenyl)(4-fluorobenzyl)amino)methyl)thiazol-4-yl)phenyl)glycinate]
14 ± 0.21 | 105.3 to 107 |  | COc1ccc(N(Cc2ccc(F)cc2)Cc2nc(-c3ccc(C)cc3)cs2)cc1OC [Compound 42, N-(4-Fluorobenzyl)-3,4-dimethoxy-N-((4-(p-tolyl)thiazol-2-yl)methyl)aniline]
6.36 ± 0.12 |  |  | COc1ccc(N(Cc2ccc(F)cc2)Cc2nc(-c3ccccc3[N+](=O)[O-])cs2)cc1OC [Compound 35, N-(4-Fluorobenzyl)-3,4-dimethoxy-N-((4-(2-nitrophenyl)thiazol-2-yl)methyl)aniline]
1.5 ± 0.03 | 105.4 to 106.6 |  | COc1ccc(N(Cc2ccc(F)cc2)Cc2nc(-c3ccc(C#N)cc3)cs2)cc1OC [Compound 33, 4-(2-(((3,4-Dimethoxyphenyl)(4-fluorobenzyl)amino)methyl)thiazol-4-yl)benzonitrile]
> 50 | 134.6 to 137 |  | COc1ccc(N(Cc2ccc(F)cc2)Cc2nc(-c3ccc(NC(C)=O)cc3)cs2)cc1OC [Compound 46, N-(4-(2-(((3,4-Dimethoxyphenyl)(4-fluorobenzyl)amino)methyl)thiazol-4-yl)phenyl)acetamide]
> 50 | 139 to 140.4 |  | COc1ccc(N(Cc2ccc(F)cc2)Cc2nc(-c3ccc(N4CCOCC4)cc3)cs2)cc1OC [Compound 49, N-(4-Fluorobenzyl)-3,4-dimethoxy-N-((4-(4-morpholinophenyl)thiazol-2-yl)methyl)aniline]
1.38 ± 0.07 | 120.5 to 121.6 |  | COc1ccc(N(Cc2ccc(F)cc2)Cc2nc(-c3cccc([N+](=O)[O-])c3)cs2)cc1OC [Compound 34, N-(4-Fluorobenzyl)-3,4-dimethoxy-N-((4-(3-nitrophenyl)thiazol-2-yl)methyl)aniline]
11 ± 0.31 | 76.3 to 79 |  | COc1ccc(-c2csc(CN(Cc3ccc(F)cc3)c3ccc(OC)c(OC)c3)n2)cc1 [Compound 43, N-(4-Fluorobenzyl)-3,4-dimethoxy-N-((4-(4-methoxyphenyl)thiazol-2-yl)methyl)aniline]
6.03 ± 0.04 | 115.8 to 119 |  | COc1ccc(N(Cc2ccc(F)cc2)Cc2nc(-c3ccc(-c4cccs4)cc3)cs2)cc1OC [Compound 40, N-(4-Fluorobenzyl)-3,4-dimethoxy-N-((4-(4-(thiophen-2-yl)phenyl)thiazol-2-yl)methyl)aniline]
8.96 ± 0.15 |  |  | COc1ccc(N(Cc2ccc(F)cc2)Cc2nc(-c3ccc(Br)cc3)cs2)cc1OC [Compound 36, N-((4-(4-Bromophenyl)thiazol-2-yl)methyl)-N-(4-fluorobenzyl)-3,4-dimethoxyaniline]
7.57 ± 0.1 | 69 to 69.8 |  | COc1ccc(N(Cc2ccc(F)cc2)Cc2nc(-c3ccc(-c4c(C)noc4C)cc3)cs2)cc1OC [Compound 38, N-((4-(4-(3,5-Dimethylisoxazol-4-yl)phenyl)thiazol-2-yl)methyl)-N-(4-fluorobenzyl)-3,4-dimethoxyaniline]
4.02 ± 0.05 | 126.1 to 130.3 |  | COc1ccc(N(Cc2ccc(F)cc2)Cc2nc(-c3ccc(-c4cnn(C)c4)cc3)cs2)cc1OC [Compound 37, N-(4-Fluorobenzyl)-3,4-dimethoxy-N-((4-(4-(1-methyl-1H-pyrazol-4-yl)phenyl)thiazol-2-yl)methyl)aniline]
8.4 ± 0.04 |  | ~10 | CCOC(=O)CCCOc1ccc(-c2csc(CN(Cc3ccc(F)cc3)c3ccc(OC)c(OC)c3)n2)cc1 [Compound 48, Ethyl-4-(4-(2-(((3,4-dimethoxyphenyl)(4-fluorobenzyl)amino)methyl)thiazol-4-yl)phenoxy)butanoate]
6.38 ± 0.09 | 102.4 to 103.3 |  | COc1ccc(N(Cc2ccc(F)cc2)Cc2nc(-c3ccc(-c4ccnn4C)cc3)cs2)cc1OC [Compound 39, N-(4-Fluorobenzyl)-3,4-dimethoxy-N-((4-(4-(1-methyl-1H-pyrazol-5-yl)phenyl)thiazol-2-yl)methyl)aniline]
